Reference: the supplement of paper PMC10307832

Assays:
Assay in all cases: relative viability (nuclei count vs DMSO), 5 days (fraction); higher = more cells survive
[1] = compound: CC(C)C[C@H](NC(=O)[C@H](CCc1ccccc1)NC(=O)CN1CCOCC1)C(=O)N[C@@H](Cc1ccccc1)C(=O)N[C@@H](CC(C)C)C(=O)[C@@]1(C)CO1 [Carfilzomib] + CC(C)C[C@H](NC(=O)[C@H](Cc1ccccc1)NC(=O)c1cnccn1)B(O)O [Bortezomib] (partner 0.002 µM)
Summary of the method: (§1)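 Lung cancer cell lines in 1536-well plates were dosed by pin tool the day after seeding, either with one drug alone or with a fixed anchor-drug dose plus five library-drug doses (not always all listed) in √10 steps. After 5 days, cells were fixed and their nuclei stained in one step (final 0.05% Triton X-100, 1% formaldehyde, 1 ug/ml Hoechst), then counted on 4× images. Relative viability is the nuclei count in treated wells divided by that in vehicle wells. Values are medians of duplicate plates.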

[2] = compound: CC(C)C[C@H](NC(=O)[C@H](CCc1ccccc1)NC(=O)CN1CCOCC1)C(=O)N[C@@H](Cc1ccccc1)C(=O)N[C@@H](CC(C)C)C(=O)[C@@]1(C)CO1 [Carfilzomib] + COc1cc2c(Oc3ccc(NC(=O)C4(C(=O)Nc5ccc(F)cc5)CC4)cc3F)ccnc2cc1OCCCN1CCOCC1 [Foretinib] (partner 0.25 µM)
Summary of the method: as §1

[3] = compound: O=C(c1cc(Cc2n[nH]c(=O)c3ccccc23)ccc1F)N1CCN(C(=O)C2CC2)CC1 [Olaparib] + COc1cccc2cc(-c3nc([C@H]4CC[C@H](C(=O)O)CC4)n4ncnc(N)c34)[nH]c12 [OSI-027] (partner 0.5 µM)
Summary of the method: as §1

[4] = compound: O=C(c1cc(Cc2n[nH]c(=O)c3ccccc23)ccc1F)N1CCN(C(=O)C2CC2)CC1 [Olaparib] + NC(=O)Nc1cc(-c2cccc(F)c2)sc1C(=O)N[C@H]1CCCNC1 [AZD7762] (partner 0.2 µM)
Summary of the method: as §1

| Cell Line | relative viability ([1]; first compound 0.001 µM) | relative viability ([1]; first compound 0.003162 µM) | relative viability ([1]; first compound 0.01 µM) | relative viability ([1]; first compound 0.03162 µM) | relative viability ([1]; first compound 0.1 µM) | relative viability ([2]; first compound 0.001 µM) | relative viability ([2]; first compound 0.003162 µM) | relative viability ([2]; first compound 0.01 µM) | relative viability ([2]; first compound 0.03162 µM) | relative viability ([2]; first compound 0.1 µM) | relative viability ([3]; first compound 0.08 µM) | relative viability ([3]; first compound 0.253 µM) | relative viability ([3]; first compound 2.53 µM) | relative viability ([3]; first compound 8 µM) | relative viability ([4]; first compound 0.08 µM) | relative viability ([4]; first compound 0.253 µM) | relative viability ([4]; first compound 2.53 µM) | relative viability ([4]; first compound 8 µM) |
| --- | --- | --- | --- | --- | --- | --- | --- | --- | --- | --- | --- | --- | --- | --- | --- | --- | --- | --- |
| H3255 | 0.765 | 0.769 | 0.841 | 0.315 | 0.179 | 0.876 | 0.952 | 0.939 | 0.815 | 0.327 | 0.591 | 0.56 | 0.764 | 0.548 | 1.04 | 0.823 | 0.852 | 0.933 |
| NCI-H1355 | 1.07 | 1.1 | 1.15 | 0.315 | 0.157 | 0.995 | 1.07 | 1.03 | 0.714 | 0.198 | 0.517 | 0.399 | 0.441 | 0.412 | 0.74 | 0.749 | 0.714 | 0.696 |
| Calu-6 | 0.886 | 0.713 | 0.299 | 0.119 | 0.106 | 0.889 | 0.933 | 0.842 | 0.127 | 0.0591 | – | – | – | – | – | – | – | – |
| NCI-H520 | 0.45 | 0.179 | 0.142 | 0.129 | 0.132 | 0.781 | 0.999 | 0.695 | 0.17 | 0.203 | 0.233 | 0.246 | 0.281 | 0.213 | – | – | – | – |
| SK-MES-1 | – | – | – | – | – | 0.851 | 0.954 | 0.918 | 0.97 | 0.283 | 0.674 | 0.553 | 0.577 | 0.459 | – | – | – | – |
| NCI-H661 | 0.801 | 0.965 | 0.842 | 0.384 | 0.214 | 1.05 | 1.16 | 1.07 | 1.06 | 0.377 | 0.7 | 0.61 | 0.708 | 0.621 | – | – | – | – |
| NCI-H2342 | – | – | – | – | – | 1.04 | 1.06 | 1.08 | 0.988 | 0.621 | 0.565 | 0.54 | 0.55 | 0.564 | 0.544 | 0.4 | 0.439 | 0.474 |
| SK-LU-1 | 0.878 | 1.19 | 0.797 | 0.195 | 0.237 | 0.838 | 0.857 | 0.919 | 0.116 | 0.124 | 0.345 | 0.331 | 0.382 | 0.24 | – | – | – | – |
| A549 | – | – | – | – | – | 0.86 | 0.966 | 0.946 | 0.0732 | 0.0218 | – | – | – | – | – | – | – | – |
| NCI-H2009 | 1.11 | 1.26 | 0.78 | 0.122 | 0.0487 | 1.25 | 1.26 | 1.21 | 0.355 | 0.0701 | 0.739 | 0.601 | 0.645 | 0.458 | – | – | – | – |
| UMC-11 | 0.66 | 0.887 | 0.701 | 0.533 | 0.179 | 0.996 | 1.05 | 1.06 | 0.944 | 0.299 | 0.474 | 0.392 | 0.481 | 0.334 | – | – | – | – |
| COR-L 105 | 0.724 | 0.658 | 0.527 | 0.265 | 0.239 | 1.31 | 1.13 | 1.05 | 0.779 | 0.26 | 0.77 | 0.679 | 0.487 | 0.584 | – | – | – | – |
| EBC-1 | 0.524 | 0.317 | 0.149 | 0.119 | 0.168 | 0.0996 | 0.124 | 0.121 | 0.0586 | 0.0611 | – | – | – | – | – | – | – | – |
| NCI-H1650 | – | 0.19 | 0.17 | 0.195 | 0.197 | 1.22 | 0.965 | 0.954 | 0.125 | 0.321 | 0.842 | 0.515 | 0.72 | 0.816 | – | – | – | – |
| COR-L23 | 0.94 | 0.877 | 0.253 | 0.0785 | 0.0696 | 0.991 | 1.16 | 0.996 | 0.196 | 0.0831 | 0.723 | 0.635 | 0.712 | 0.424 | – | – | – | – |
| NCI-H2023 | 0.951 | 1.07 | 1.01 | 0.184 | 0.0639 | 0.957 | 0.896 | 0.894 | 0.948 | 0.0777 | 0.445 | 0.356 | 0.406 | 0.276 | – | – | – | – |
| NCI-H2228 | 0.94 | 0.54 | 0.257 | 0.0941 | 0.156 | 0.902 | 0.883 | 0.633 | 0.0979 | 0.096 | 0.644 | 0.386 | 0.598 | 0.509 | – | – | – | – |
| NCI-H1395 | – | – | – | – | – | 0.981 | 1.07 | 0.954 | 0.527 | 0.329 | 0.743 | 0.58 | 0.524 | 0.536 | 0.429 | 0.334 | 0.384 | 0.359 |
| NCI-H1299 | 0.997 | 1.09 | 1.02 | 0.986 | 0.156 | 1.03 | 1.02 | 1.14 | 0.597 | 0.117 | – | – | – | – | – | – | – | – |
| NCI-H522 | – | – | – | – | – | – | – | – | – | – | 0.783 | 0.659 | 0.723 | 0.642 | 0.974 | 0.896 | 0.809 | 0.705 |
| SW 900 | – | – | – | – | – | 1.01 | 0.999 | 0.315 | 0.0988 | 0.116 | 0.693 | 0.561 | 0.565 | 0.458 | 0.652 | 0.637 | 0.584 | 0.555 |
| NCI-H1563 | 0.815 | 0.985 | 0.836 | 0.513 | 0.477 | 0.927 | 1.08 | 0.968 | 0.828 | 0.517 | 0.75 | 0.745 | 0.806 | 0.753 | – | – | – | – |
| SW 1573 | 0.986 | 0.959 | 0.546 | 0.114 | 0.0592 | 0.934 | 1.27 | 0.884 | 0.725 | 0.0812 | 0.738 | 0.675 | 0.471 | 0.517 | – | – | – | – |
| HCC-44 | 0.876 | 0.917 | 0.897 | 0.552 | 0.147 | – | – | – | – | – | 0.55 | 0.424 | 0.434 | 0.565 | 1.01 | 1 | 1.03 | 1.07 |
